System: yeast genes (level of expressed mRNA)
Experiment: DNA chip analysis of expressed mRNA of yeast genes after 2 h culture with a toxic chemical substance
Format: cell-based, Saccharomyces cerevisiae S288C
Details: for The level of expressed mRNA in the presence of chemical substance/ (ratio to absence of chemical substance): stress protein genes, DNA chip
Protocol: Yeast (Saccharomyces cerevtisiae S288C (α SUC2mal mel gap2 CUP1)) were cultured at 25° C. on YPD medium (yeast extract 1%, polypepton 2%, glucose 2%). One of toxic chemical substances was added to the cell at logarithmic growth phase, and the cell was further cultured for two hours. Cell was cultured without any chemical substance in the same condition, and was used as control. Concentrations of the chemical substances were defined to inhibit the growth of the yeast but not lead to death.
After the completion of cultivation, the culture was centrifuged to collect the cells. To the cells, sodium acetate buffer (50 mM sodium acetate, 10 mM EDTA, 1% SDS) was added, and the mixture was shaken at 65° C. for five minutes, followed by returning to room temperature, and obtaining the supernatant, which procedure was repeated two times. To the supernatant, ½ amount of a solution of phenol/chloroform was added, and the mixture was centrifuged to give a supernatant, which was added with an equal amount of chloroform, and the mixture was centrifuged to give a supernatant. To the supernatant, an equal amount of isopropanol containing 0.3 M sodium acetate was added, and the mixture was allowed to stand at room temperature for 30 minutes, after which the mixture was centrifuged to give a sediment of the whole RNAs. Seventy % ethanol was added to the sediment, and the mixture was again centrifuged to give a sediment, which was then dried and dissolved in water. mRNA was isolated from the whole RNAs as followings. In view of the fact that a poly A chain is attached to the 3′ terminus of mRNA, a polynucleotide having a poly T structure which was immobilized on the surface of latex beads was used to trap the mRNA, and then the mRNA was washed and eluted with spine column (Oligotex-dT30<Super>mRNA Purification Kit, Takara). Reverse transcription of the mRNA was conducted with a reverse transcriptase (Super Script II Reverse Transcriptase; catalogue No. 18064-014, GibcoBRL) using fluorescence-labeled nucleotides to give cDNAs that were introduced with Cy3-dUTP or Cy5-dUTP during the reverse transcription.
The labeled cDNAs were dissolved in TE buffer (10 mM Tris-HCl/1 mM EDTA, pH8.0), and the solution was dropped on the DNA chip containing the whole genes of yeast (DNA Chip Research Inc. Japan) so that the cDNAs were hybridized on the DNA chip at 65° C. for over 12 hours. The fluoresces intensity of the DNA chip was read with a scanner, and the ratio relative to the fluorescence intensity resulting from the absence of chemical substance was estimated as the following, which is shown in Tables 1 to 9: [formula]
In the Tables, “Intensity” indicated in the rightmost column is a value of the level of expressed mRNA of each gene in control cells as divided by the average level of the expressions of the whole genes.

C=CC=O [(14), acrolein]
The level of expressed mRNA in the presence of chemical substance/ in its absence, gene YDL078C (yeast gene YDL078C, ratio of DNA chip fluorescence intensity to that without chemical substance): 0.8
The level of expressed mRNA in the presence of chemical substance/ (in its absence), gene YDL215C (yeast gene YDL215C, ratio of DNA chip fluorescence intensity to that without chemical substance): 1.0
The level of expressed mRNA in the presence of chemical substance/The level of expressed mRNA in the absence of chemical substance (yeast gene YDL238C): 1.2
The level of expressed mRNA in the presence of chemical substance/The level of expressed mRNA in the absence of chemical substance (yeast gene YDR055W): 0.9
The level of expressed mRNA in the presence of chemical substance/ (in its absence), gene YDR073W (yeast gene YDR073W, ratio of DNA chip fluorescence intensity to that without chemical substance): 1.2
The level of expressed mRNA in the presence of chemical substance/ in its absence, gene YDR079W (yeast gene YDR079W, energy system protein genes, 2 h culture with the chemical, ratio to control without chemical): 1.5
The level of expressed mRNA in the presence of chemical substance/ (ratio to absence), gene YDR079W (yeast gene YDR079W, mitochondria-located protein genes, 2 h culture with chemical): 1.5
The level of expressed mRNA in the presence of chemical substance/The level of expressed mRNA in the absence of chemical substance (yeast gene YDR084C): 1.0
The level of expressed mRNA in the presence of chemical substance/The level of expressed mRNA in the absence of chemical substance (yeast gene YDR085C): 1.6
The level of expressed mRNA in the presence of chemical substance/The level of expressed mRNA in the absence of chemical substance (yeast gene YDR104C): 1.4
The level of expressed mRNA in the presence of chemical substance/The level of expressed mRNA in the absence of chemical substance (yeast gene YDR115W): 1.5
The level of expressed mRNA in the presence of chemical substance/The level of expressed mRNA in the absence of chemical substance (yeast gene YDR259C): 1.5
The level of expressed mRNA in the presence of chemical substance/ (in its absence), gene YDR297W (yeast gene YDR297W, ratio of DNA chip fluorescence intensity to that without chemical substance): 0.9
The level of expressed mRNA in the presence of chemical substance/The level of expressed mRNA in the absence of chemical substance (yeast gene YDR315C): 1.4
The level of expressed mRNA in the presence of chemical substance/The level of expressed mRNA in the absence of chemical substance (yeast gene YDR358W): 1.2
The level of expressed mRNA in the presence of chemical substance/ (ratio to absence), gene YDR377W (yeast gene YDR377W, mitochondria-located protein genes, 2 h culture with chemical): 1.4
The level of expressed mRNA in the presence of chemical substance/ (in its absence), gene YDR387C (yeast gene YDR387C, ratio of DNA chip fluorescence intensity to that without chemical substance): 0.9
The level of expressed mRNA in the presence of chemical substance/The level of expressed mRNA in the absence of chemical substance (yeast gene YDR388W): 0.6
The level of expressed mRNA in the presence of chemical substance/The level of expressed mRNA in the absence of chemical substance (yeast gene YDR432W): 0.5
The level of expressed mRNA in the presence of chemical substance/The level of expressed mRNA in the absence of chemical substance (yeast gene YDR481C): 0.9
The level of expressed mRNA in the presence of chemical substance/The level of expressed mRNA in the absence of chemical substance (yeast gene YDR510W): 1.9
The level of expressed mRNA in the presence of chemical substance/ (ratio to absence of chemical substance) (yeast gene YEL039C): 1.4
The level of expressed mRNA in the presence of chemical substance/The level of expressed mRNA in the absence of chemical substance (yeast gene YEL042W): 0.6
The level of expressed mRNA in the presence of chemical substance/The level of expressed mRNA in the absence of chemical substance (yeast gene YEL066W): 1.9
The level of expressed mRNA in the presence of chemical substance/ (in its absence), gene YER015W (yeast gene YER015W, ratio of DNA chip fluorescence intensity to that without chemical substance): 1.1
The level of expressed mRNA in the presence of chemical substance/The level of expressed mRNA in the absence of chemical substance (yeast gene YER039C): 1.2
The level of expressed mRNA in the presence of chemical substance/ (ratio to absence of chemical substance) (yeast gene YER057C): 1.4
The level of expressed mRNA in the presence of chemical substance/The level of expressed mRNA in the absence of chemical substance (yeast gene YER107C): 1.1
The level of expressed mRNA in the presence of chemical substance/The level of expressed mRNA in the absence of chemical substance (yeast gene YER130C): 0.8
The level of expressed mRNA in the presence of chemical substance/The level of expressed mRNA in the absence of chemical substance (yeast gene YFL028C): 1.6
The level of expressed mRNA in the presence of chemical substance/The level of expressed mRNA in the absence of chemical substance (yeast gene YFL043C): 1.5
The level of expressed mRNA in the presence of chemical substance/ (in its absence), gene YGL035C (yeast gene YGL035C, ratio of DNA chip fluorescence intensity to that without chemical substance): 1.1
The level of expressed mRNA in the presence of chemical substance/ (in its absence), gene YGL115W (yeast gene YGL115W, ratio of DNA chip fluorescence intensity to that without chemical substance): 1.2
The level of expressed mRNA in the presence of chemical substance/ (ratio to absence of chemical substance) (yeast gene YGL115W): 1.2
The level of expressed mRNA in the presence of chemical substance/The level of expressed mRNA in the absence of chemical substance (yeast gene YGL158W): 2.3
The level of expressed mRNA in the presence of chemical substance/ (ratio to absence), gene YGL187C (yeast gene YGL187C, mitochondria-located protein genes, 2 h culture with chemical): 0.9
The level of expressed mRNA in the presence of chemical substance/ (in its absence), gene YGL205W (yeast gene YGL205W, ratio of DNA chip fluorescence intensity to that without chemical substance): 1.0
The level of expressed mRNA in the presence of chemical substance/The level of expressed mRNA in the absence of chemical substance (yeast gene YGL229C): 1.0
The level of expressed mRNA in the presence of chemical substance/ in its absence, gene YGR062C (yeast gene YGR062C, energy system protein genes, 2 h culture with the chemical, ratio to control without chemical): 1.2
The level of expressed mRNA in the presence of chemical substance/ (ratio to absence), gene YGR062C (yeast gene YGR062C, mitochondria-located protein genes, 2 h culture with chemical): 1.2
The level of expressed mRNA in the presence of chemical substance/ (in its absence), gene YGR096W (yeast gene YGR096W, ratio of DNA chip fluorescence intensity to that without chemical substance): 1.2
The level of expressed mRNA in the presence of chemical substance/The level of expressed mRNA in the absence of chemical substance (yeast gene YGR136W): 1.1
The level of expressed mRNA in the presence of chemical substance/The level of expressed mRNA in the absence of chemical substance (yeast gene YGR189C): 0.9
The level of expressed mRNA in the presence of chemical substance/The level of expressed mRNA in the absence of chemical substance (yeast gene YGR213C): 1.0
The level of expressed mRNA in the presence of chemical substance/The level of expressed mRNA in the absence of chemical substance (yeast gene YGR257C): 0.9
The level of expressed mRNA in the presence of chemical substance/ (in its absence), gene YGR287C (yeast gene YGR287C, ratio of DNA chip fluorescence intensity to that without chemical substance): 1.1
The level of expressed mRNA in the presence of chemical substance/ (in its absence), gene YGR288W (yeast gene YGR288W, ratio of DNA chip fluorescence intensity to that without chemical substance): 1.1
The level of expressed mRNA in the presence of chemical substance/ (ratio to absence of chemical substance) (yeast gene YHL028W): 1.3
The level of expressed mRNA in the presence of chemical substance/ (ratio to absence of chemical substance) (yeast gene YHL046C): 1.4
The level of expressed mRNA in the presence of chemical substance/The level of expressed mRNA in the absence of chemical substance (yeast gene YHR004C): 0.8
The level of expressed mRNA in the presence of chemical substance/The level of expressed mRNA in the absence of chemical substance (yeast gene YHR071W): 1.6
The level of expressed mRNA in the presence of chemical substance/The level of expressed mRNA in the absence of chemical substance (yeast gene YHR139C): 2.5
The level of expressed mRNA in the presence of chemical substance/The level of expressed mRNA in the absence of chemical substance (yeast gene YHR142W): 1.2
The level of expressed mRNA in the presence of chemical substance/ (in its absence), gene YHR210C (yeast gene YHR210C, ratio of DNA chip fluorescence intensity to that without chemical substance): 1.0
The level of expressed mRNA in the presence of chemical substance/ (in its absence), gene YIL006W (yeast gene YIL006W, ratio of DNA chip fluorescence intensity to that without chemical substance): 1.0
The level of expressed mRNA in the presence of chemical substance/ (ratio to absence of chemical substance) (yeast gene YIL011W): 0.5
The level of expressed mRNA in the presence of chemical substance/The level of expressed mRNA in the absence of chemical substance (yeast gene YIL123W): 0.3
